Values joined by “and” are separate entries in the source; they are usually repeats but may differ in a detail not shown here. Equal entries are not always repeated.
Conditions: for mass density: 101.33 kPa, Liquid, Vibrating tube method; for surface tension liquid-gas: Pendant drop shape

CCn1cc[n+](C)c1.O=S(=O)([N-]S(=O)(=O)C(F)(F)F)C(F)(F)F
Conditions	mass density [kg/m3]	surface tension liquid-gas
293.15 K	1525	–
303.15 K	1515.1	–
313 K	–	35.2 mN/m
313.15 K	1505.3	–
313.2 K	–	33.8 mN/m and 34.7 mN/m
323.15 K	1495.5	–
332.7 K	–	34.2 mN/m
333.15 K	1485.8	–
333.3 K	–	33.6 mN/m
343.15 K	1476.1	–
352.4 K	–	33.4 mN/m
353.15 K	1466.4	–
353.4 K	–	33.4 mN/m
363.15 K	1456.7	–
372.7 K	–	32.5 mN/m
373.15 K	1447	–
373.2 K	–	31.5 mN/m
383.15 K	1437.2	–
392.9 K	–	31.4 mN/m
393.15 K	1427.4	–
393.2 K	–	31.1 mN/m
403.15 K	1417.5	–
412.8 K	–	30.5 mN/m
413.1 K	–	30.1 mN/m
413.15 K	1407.5	–
423.15 K	1397.5	–
432.5 K	–	29.6 mN/m
433.15 K	1387.3	–
443.15 K	1377	–
452.7 K	–	27.3 mN/m
453 K	–	28.7 mN/m
453.15 K	1366.6	–
463.15 K	1356	–
472.5 K	–	25.7 mN/m
472.7 K	–	26.4 mN/m
473.15 K	1345.2	–
512.6 K	–	24.6 mN/m
532.2 K	–	23.7 mN/m

CCCn1cc[n+](C)c1.O=S(=O)([N-]S(=O)(=O)C(F)(F)F)C(F)(F)F
Conditions	mass density [kg/m3]	surface tension liquid-gas [mN/m]
293.15 K	1480.5	–
303.15 K	1470.8	–
312.9 K	–	32.5
313.15 K	1461.1	–
323.15 K	1451.5	–
333.15 K	1441.9	–
333.6 K	–	31.5
343.15 K	1432.4	–
353.15 K	1422.9	–
353.9 K	–	30.2
363.15 K	1413.5	–
373.15 K	1404	–
373.5 K	–	28.8
374.2 K	–	29.1
383.15 K	1394.5	–
393.15 K	1384.9	–
393.5 K	–	29.4
394.5 K	–	28
403.15 K	1375.3	–
413.15 K	1365.6	–
413.6 K	–	28.2
414.9 K	–	27.1
423.15 K	1355.8	–
433.15 K	1345.9	–
433.3 K	–	27.6
435.2 K	–	26.3
443.15 K	1335.9	–
453.15 K	1325.8	–
453.2 K	–	26.8
455.5 K	–	26.1
463.15 K	1315.6	–
473 K	–	24.4
473.15 K	1305.1	–
475.7 K	–	24.6
